Measurements taken from patent publication US20080221092A1, “Heterobicyclic metalloprotease inhibitors” (priority 2006, published 2008).

Experiments:
[1] = biological target: T1, catalytic domain of MMP-3 enzyme (Homo sapiens, UniProt P08254); test: Assay for determining MMP-3 inhibition (fluorescent substrate NFF-3); format: biochemical; conditions: read-out: Summary of MMP-3 Activity for Compounds (IC50 MMP-3, group)
T1 construct: stock solution of the catalytic domain of MMP-3 enzyme (Biomol, Cat. No. SE-109); purchased Biomol SE-109
Method: Assay for Determining MMP-3 Inhibition
The typical assay for MMP-3 activity is carried out in assay buffer comprised of 50 mM MES, pH 6.0, 10 mM CaCl2 and 0.05% Brij-35. Different concentrations of tested compounds are prepared in assay buffer in 50 μl aliquots. 10 μl of a 100 nM stock solution of the catalytic domain of MMP-3 enzyme (Biomol, Cat. No. SE-109) is added to the compound solution. The mixture of enzyme and compound in assay buffer is thoroughly mixed and incubated for 10 min at room temperature. Upon the completion of incubation, the assay is started by addition of 40 μl of a 12.5 μM stock solution of NFF-3 fluorescent substrate (Calbiochem, Cat. No. 480455). The time-dependent increase in fluorescence is measured at the 330 nm excitation and 390 nm emission by an automatic plate multireader. The IC50 values are calculated from the initial reaction rates.

[2] = biological target: T2, catalytic domain of MMP-13 enzyme (Homo sapiens, UniProt P45452); test: Assay for determining MMP-13 inhibition (fluorescent substrate); format: biochemical; conditions: read-out: Summary of MMP-13 Activity for Compounds (IC50 MMP-13, group)
T2 construct: stock solution of catalytic domain of MMP-13 enzyme (produced by Alantos or commercially available from Invitek); purchased Invitek (Berlin) 30100812
Method: Assay for Determining MMP-13 Inhibition
The typical assay for MMP-13 activity is carried out in assay buffer comprised of 50 mM Tris, pH 7.5, 150 mM NaCl, 5 mM CaCl2 and 0.05% Brij-35. Different concentrations of tested compounds are prepared in assay buffer in 50 μl aliquots. 10 μl of a 50 nM stock solution of catalytic domain of MMP-13 enzyme (produced by Alantos or commercially available from Invitek (Berlin), Cat. No. 30100812) is added to the compound solution. The mixture of enzyme and compound in assay buffer is thoroughly mixed and incubated for 10 min at room temperature. Upon the completion of incubation, the assay is started by addition of 40 μl of a 12.5 μM stock solution of MMP-13 fluorescent substrate (Calbiochem, Cat. No. 444235). The time-dependent increase in fluorescence is measured at the 320 nm excitation and 390 nm emission by automatic plate multireader. The IC50 values are calculated from the initial reaction rates.

T1 sequence (P08254 100-272 limits assumed): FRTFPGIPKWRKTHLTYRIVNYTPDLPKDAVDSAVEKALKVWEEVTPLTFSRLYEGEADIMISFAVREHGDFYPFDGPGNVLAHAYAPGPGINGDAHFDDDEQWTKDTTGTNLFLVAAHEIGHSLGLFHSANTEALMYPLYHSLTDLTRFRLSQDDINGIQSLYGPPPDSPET

SMILES	IC50 [1] [nM]	IC50 [2] [nM]
CS(=O)(=O)Nc1c[nH]c2c(C(=O)NCc3ccc4c(c3)NC(=O)CO4)ncnc12 [Example 25]	3 to 100	101 to 20000
O=C1COc2ccc(CNC(=O)c3ncnc4c(NS(=O)(=O)c5cccs5)c[nH]c34)cc2N1 [Example 26]	101 to 20000	101 to 20000
O=C(O)c1c[nH]c2c(C(=O)NCc3ccc(F)cc3)ncnc12 [Example 19]	101 to 20000	101 to 20000
Nc1c[nH]c2c(C(=O)NCc3ccc4c(c3)NC(=O)CO4)ncnc12 [Example 15]	101 to 20000	101 to 20000
O=C1COc2ccc(CNC(=O)c3ncnc4c([N+](=O)[O-])c[nH]c34)cc2N1 [Example 6]	101 to 20000	101 to 20000
O=C1COc2ccc(CNC(=O)c3ncnc4nc[nH]c34)cc2N1 [Example 9]	101 to 20000	101 to 20000
Nc1n[nH]c2c(C(=O)NCc3ccc(F)c(Cl)c3)ncnc12 [Example 22]	101 to 20000	101 to 20000
O=C1COc2ccc(CNC(=O)c3ncnc4cc[nH]c34)cc2N1 [Example 13]	101 to 20000	101 to 20000
Nc1n[nH]c2c(C(=O)NCc3ccc4c(c3)NC(=O)CO4)ncnc12 [Example 23]	101 to 20000	3 to 100
O=C(NCc1ccc(F)c(Cl)c1)c1ncnc2c([N+](=O)[O-])c[nH]c12 [Example 7]	101 to 20000	101 to 20000
O=C1COc2ccc(CNC(=O)c3ncnc4c(NS(=O)(=O)c5ccc(Cl)cc5)c[nH]c34)cc2N1 [Example 28]	101 to 20000	101 to 20000
O=C(O)c1c[nH]c2c(C(=O)NCc3ccc(F)c(Cl)c3)ncnc12 [Example 20]	101 to 20000	101 to 20000
O=C(NCc1ccc(F)cc1)c1ncnc2c(Br)c[nH]c12 [Example 5]	101 to 20000	101 to 20000
O=C1COc2ccc(CNC(=O)c3ncnc4c(C(=O)O)c[nH]c34)cc2N1 [Example 21]	3 to 100	101 to 20000
O=C(NCc1ccc(F)c(Cl)c1)c1ncnc2c(Br)c[nH]c12 [Example 4]	101 to 20000	101 to 20000
O=C1COc2ccc(CNC(=O)c3ncnc4c(NS(=O)(=O)Cc5ccccc5)c[nH]c34)cc2N1 [Example 27]	101 to 20000	101 to 20000
CCOC(=O)c1c[nH]c2c(C(=O)NCc3ccc4c(c3)NC(=O)CO4)ncnc12 [Example 8]	3 to 100	101 to 20000
CC(C)(C)OC(=O)Nc1c[nH]c2c(C(=O)NCc3ccc4c(c3)NC(=O)CO4)ncnc12 [Example 1]	101 to 20000	
